According to patent US20090041672A1, “Drug for Treating or Diagnosing Vascular Lesion in the Skin or the Subcutaneous Soft Tissue Caused by Light Irradiation” (priority 2005, published 2009):

Experiments:
[1] = tested on: skin of the upper arm; experiment: Safety tests to human: PDT on skin of the upper arm of normal individuals; type: in vivo
Procedure: (§1) To 2 normal individuals (Subject A: normal person, Subject B: normal person), talaporfin sodium was intravenously administered at a dose of 0.2 mg/kg. After the administration, the skin of the upper arm was irradiated with a diode laser (irradiation conditions: irradiation energy of 25 J/cm^2 and 50 J/cm^2 at an […] of 127 mW/cm^2, diameter of irradiated spots: 1 cm in both spots). Subject A was followed up for 2 weeks and Subject B was followed up for 2 months.

[2] = tested on: cock's combs; experiment: PDT of cock's comb, model of cutaneous vascular lesion (capillary hemangioma); type: in vivo, cocks
Source text: Animals Used: cocks (bodyweight: 2.5 to 3.5 kg) of 22 to 24 weeks old
Photosensitizer: talaporfin sodium
Laser Used Panalas6405, diode laser, wavelength: 664.5 nm±2 nm, output power: 75-500 mW
(§2) As the model of PDT to cutaneous vascular lesion (capillary hemangioma), cock's combs were used. Cock's comb is recognized as a model of cutaneous vascular lesion (capillary hemangioma) in this field. To each cock of 22 to 24 weeks old (bodyweight: about 2.5 kg), talaporfin sodium solution (concentration: 5 mg/ml) was intravenously injected from the brachial vein in an amount of 2.5 mg/kg bodyweight of the cock, in terms of the amount of talaporfin sodium. Immediately after the intravenous injection, the cock's comb was irradiated with a diode laser (wavelength: 664.5 nm±2 nm, irradiation power density: 127 mW/cm^2, energy density: 25 J/cm^2 or 50 J/cm^2). As an experimental group, (i) PDT-performed group was made, and as control groups, (ii) a group to which only the intravenous injection of talaporfin sodium was performed, and (iii) a group to which only laser irradiation was performed, were made. The mean plasma talaporfin sodium level at the end of the treatment was also measured.
Morphological changes during 7 days after the treatment were visually observed, and the cocks were subjected to autopsy 7 days after the treatment. Tissue preparations were stained by hematoxylin eosin staining by a conventional method, and as required, PTAH staining (fibrin staining) and AZAN staining (collagen fiber staining) were added.

[3] = Plasma talaporfin sodium level in cocks at the end of treatment; type: in vivo; conditions: 2.5 mg/kg intravenous, at end of laser treatment
Procedure: as §2

[4] = Plasma drug level in human after PDT; type: in vivo; conditions: from actually measured plasma level of Example 2
Procedure: as §1
Further, it was confirmed from the change with time of the plasma drug level measured after the PDT that the plasma level at which the photosensitive reaction no longer occurs is attained at 24 to 48 hours from the intravenous injection. This period of time is almost coincident with the period of time deduced from the model of pharmacokinetics, so that the correctness of the above-described estimated required shading time was confirmed.

[5] = PDT-performed group, autopsy 7 days after treatment
[6] = control group, only drug administration, no laser

## Tetrasodium salt of mono-L-aspartyl chlorin e6 [talaporfin sodium]
[1]; 0.2 mg/kg i.v. + diode laser 25 and 50 J/cm^2, from immediately after the PDT
  edema in the irradiated sites and vicinities: slight edema was observed
[1]; 0.2 mg/kg i.v. + diode laser 25 and 50 J/cm^2, up to 2 days after the treatment
  erythema in the irradiated sites: slight erythema was observed
[1]; 0.2 mg/kg i.v. + diode laser, one week after the treatment
  erythema in the irradiated sites: the erythema had been disappeared
[1]; Subject B, 0.2 mg/kg i.v. + diode laser
  side effects at two months from the treatment: no side effects were observed
[2]; [5]
  histological findings: blood vessels in the dermis (hematoxylin eosin): disappearance of vasodilated blood vessels in the dermis was observed
  histological findings: hyperplasia of collagen fibers in the stroma: not observed
  histological findings: stratum corneum epidermidis and stratum basale epidermidis in the irradiated site: the continuity of the stratum corneum epidermidis was maintained, and the stratum basale epidermidis was also conserved
  histological findings: vascular endothelial cells in the dermis (highly magnified image): disappearance of vascular endothelial cells was observed
[2]; PDT-performed group: 2.5 mg/kg i.v. + diode laser 664.5 nm, 127 mW/cm^2, 25 or 50 J/cm^2, observed 7 days
  visual findings: decoloration reaction: decoloration reaction was observed at the site coincident with the irradiated site
[2]; [6]
  histological findings: No changes were observed
  visual findings: decoloration reaction: Decoloration reaction was not observed
[3]
  mean plasma talaporfin sodium level at the end of treatment: 2.3 µg/mL
[4]
  amount of talaporfin sodium needed in human for attaining the plasma level found in cocks (2.3 μg/mL): 0.2 mg/kg
